# Assays:
# BALB/c 3T3 cells = assay: MTT cytotoxicity of Ce6-curcumin derivative PDT in BALB/c 3T3 cells; assay type: cell-based, mouse; settings: Mus musculus, BALB/c3T3, light or radiation study; 3 h treatment, 660 nm 20 J/cm^2, MTT after 24 h; read-out: IC50 BALB/c 3T3 cell viability
# Experimental: MTT assay was used to evaluate viability after 24 h. IC50 values were calculated using GraphPad Prism 5 software.
# Hs68 and BALB/c 3T3 cell viability was measured using a 3-[4,5-dimethylthylthiazol-2-yl]-2,5 diphenyl tetrazolium bromide (MTT) assay. The cells were cultured in 24-well plates at a density of 3 × 10^4 cells per well or BALB/c 3T3 cells at a density of 1 × 10^4 cells per well. […] The Hs68 cells were then exposed to LED light (660 nm; 89 W/m^2; 20 J/cm^2) for 37 min 27 s and incubated for 3 h. […] The cells were washed and treated with MTT, after which the plates were incubated at 37 °C in the dark for 2 h. After the formation of formazan, 100 µL of DMSO was added, and the absorbance was measured at 570 nm using a microtiter plate reader (Thermo-scientific, Skanlt software 5.0, Waltham, MA, USA)
# [1] = Ex vivo fluorescence imaging and biodistribution in ICR mice; settings: 2.5 mg/kg IV, 3 h post-injection
# Experimental: To confirm the organ-specific signaling intensities of different Ce6-curcumin derivatives, we measured ex-vivo FLI in different organs of ICR mice after 3 h of intravenous drug administration. The drug interval time of 3 h before light irradiation in PDT for Ce6-curcumin derivatives can be explained by the pharmacokinetics and imaging study of Ce6 provided in Figures S1 and S2. Three hours after IV injection of 2.5 mg/kg of Ce6- hexane-curcumin, Ce6-propane-curcumin, and Ce6-diPEG-curcumin, ex-vivo images were obtained. […] Furthermore, the fluorescence intensity of Ce6-curcumin derivatives was highest in organs with a larger blood supply, including the liver and lungs.
# (B) Biodistribution of the three Ce6-curcumin derivatives in the organ lysates after 3 h post-injection. The quantitation of fluorescence signals of Ce6 derivatives has been represented as a bar. Data were represented as mean ± SD from at least three independent experiments and were analyzed by one-way ANOVA with Tukey’s post hoc test: * p < 0.01, compared with vehicle-treated control of the spleen, ^# p < 0.01, compared with vehicle-treated control of the lungs, ^& p < 0.01, compared with vehicle-treated control of the liver.
# Biodistribution analysis for Ce6 and Ce6-curcumin derivatives was calculated by measuring tissue fluorescence. […] The fluorescence intensity was normalized to the tissue weight.
structure (smiles),measurement,setting,value
C=Cc1c(C)c2cc3nc(c(CC(=O)OC)c4[nH]c(cc5nc(cc1[nH]2)C(C)=C5CC)c(C)c4C(=O)NCCCOCCOCCOCCCNC(=O)CCCC(=O)Oc1ccc(/C=C/C(=O)CC(=O)/C=C/c2ccc(O)c(OC)c2)cc1OC)C(CCC(=O)OC)C3C (centres unmarked) [Ce6-diPEG-curcumin],IC50,BALB/c 3T3 cells,800 nM
same,ex vivo fluorescence signal in organs,[1],highest fluorescence
